Laboratory results: EP0655506B1 (priority 1994, dated 1995)

Tests used:
Assay in all cases: Gel electrophoresis-based rate of incorporation of dideoxynucleotides relative to deoxynucleotides, varying the ratio of dNTPs to ddNTPs (Example 7)
T7 DNA polymerase Y526F = molecular target: T1, T7 DNA polymerase Y526F (Escherichia phage T7, UniProt P00581, DEL118-145/Y526F); format: biochemical, bacteriophage T7; conditions: 10 µM 4 dNTPs, ddNTP 100 to 2,000 µM; ddNTP:dNTP ratio giving fragments comparable to T7 DNA polymerase, multiplied by its Example 6 ratio
T1 construct: made in house; host or cells: strain that produces E. coli thioredoxin (lac promoter)
Experimental: (§1) This example is similar to that described in Example 6. While it is the preferred test for DNA polymerases that discriminate strongly against the incorporation of dideoxynucleotides (e.g. T7 DNA polymerase Y526F, E. coli DNA polymerase I and Taq DNA polymerase), it also works well with DNA polymerases that efficiently incorporate ddNMPs (e.g. T7 DNA polymerase, E. coli DNA polymerase I mutant F762Y and Taq DNA polymerase mutant F667Y).
(§2) The average length of a series of fragments is determined in one of two ways. […] The position of the front marking the appearance of visible radioactive bands is usually relatively sharp and readily observed by eye. However, it is also possible to determine such positions more precisely using the Phosphoimager to locate the position in each lane where a certain threshold of radioactivity per unit area occurs, starting at the top of the gel and moving down the gel.
(§3) Some DNA polymerases discriminate very strongly against the incorporation of dideoxynucleotides, in which case it is difficult to add sufficient ddNTPs to the reaction to clearly detect the position of the largest dideoxy-terminated fragments on a denaturing polyacrylamide gel. For such DNA polymerases, one can use an alkaline agarose gel electrophoresis to compare the lengths of the dideoxy-terminated fragments in the different series.
(§4) These tests were carried out using the six DNA polymerases described in Example 6. The reaction conditions were identical to that described in Example 6 except for the concentrations of dNTPs and ddNTPs. All reaction mixtures contained 10 µM 4 dNTPs. Each of the four ddNTP concentrations were varied by two-fold increments in the following ranges for the six DNA polymerases as follows: T7 DNA polymerase, E. coli DNA polymerase I F762Y, and Taq DNA polymerase F667Y , 0.02 µM to 1 µM, and T7 DNA polymerase Y526F, E. coli DNA polymerase I and Taq DNA polymerase, 100 to 2,000 µM. The reactions were carried out and the samples were analyzed by denaturing polyacrylamide gel electrophoresis as described in Example 6. Drying of the gel, autoradiography, and Phosphoimager analysis were as described in Example 6. The Table below summarizes the results from this experiment; the values shown for T7 DNA polymerase, E. coli DNA polymerase I F762Y, and Taq DNA polymerase F667Y are the absolute ratios obtained in Example 6 by statistical analysis of the rate of exponential decay in intensity of dideoxy-terminated fragments obtained using a 1:1 ratio of dNTPs to ddNTPs. […] This factor was multiplied by the absolute ratios obtained for T7 DNA polymerase, E. coli DNA polymerase I F762Y, and Taq DNA polymerase F667Y in Example 6 in order to obtain the values shown below for T7 DNA polymerase Y526F, E. coli DNA polymerase I and Taq DNA polymerase, respectively.

[1] = molecular target: T2, E. coli DNA polymerase I (large fragment, Klenow fragment), wild type (Escherichia coli, UniProt P00582); format: biochemical; conditions: 10 µM 4 dNTPs, ddNTP 100 to 2,000 µM; ddNTP:dNTP ratio giving fragments comparable to E. coli DNA polymerase I F762Y, multiplied by its Example 6 ratio
T2 construct: The large fragment of E. coli DNA polymerase I, commonly called the Klenow fragment; made in house
Experimental: as §1, §2, §3, §4

[2] = molecular target: T3, Taq DNA polymerase (unmodified DNA polymerase from Thermus aquaticus) (Thermus aquaticus, UniProt P19821); format: biochemical; conditions: 10 µM 4 dNTPs, ddNTP 100 to 2,000 µM; ddNTP:dNTP ratio giving fragments comparable to Taq DNA polymerase F667Y, multiplied by its Example 6 ratio
T3 construct: to the gene that produces the full length Taq DNA polymerase; made in house
Experimental: as §1, §2, §3, §4

T1 sequence (P00581 other isoform, or with tags, fused parts or gaps DEL118-145/Y526F): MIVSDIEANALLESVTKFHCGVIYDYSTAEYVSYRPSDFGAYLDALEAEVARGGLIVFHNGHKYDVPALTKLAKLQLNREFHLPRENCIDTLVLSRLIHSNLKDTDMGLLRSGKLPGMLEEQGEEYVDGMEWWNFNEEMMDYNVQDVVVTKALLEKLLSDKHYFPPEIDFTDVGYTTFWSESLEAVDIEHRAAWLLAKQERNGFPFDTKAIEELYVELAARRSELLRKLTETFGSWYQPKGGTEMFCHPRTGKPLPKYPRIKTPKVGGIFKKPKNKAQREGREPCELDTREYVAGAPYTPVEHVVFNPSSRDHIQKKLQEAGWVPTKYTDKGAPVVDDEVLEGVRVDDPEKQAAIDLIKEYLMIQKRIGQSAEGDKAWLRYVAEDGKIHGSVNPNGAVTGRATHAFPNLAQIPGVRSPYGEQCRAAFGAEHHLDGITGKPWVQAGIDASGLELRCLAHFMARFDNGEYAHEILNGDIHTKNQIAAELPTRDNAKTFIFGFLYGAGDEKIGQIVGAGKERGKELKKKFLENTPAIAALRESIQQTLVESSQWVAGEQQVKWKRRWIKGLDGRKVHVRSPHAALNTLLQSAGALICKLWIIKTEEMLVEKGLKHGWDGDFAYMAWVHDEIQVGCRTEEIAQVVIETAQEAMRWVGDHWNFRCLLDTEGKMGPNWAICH
T1 sequence (P0AA25 2-109, stated change not applied, further chain): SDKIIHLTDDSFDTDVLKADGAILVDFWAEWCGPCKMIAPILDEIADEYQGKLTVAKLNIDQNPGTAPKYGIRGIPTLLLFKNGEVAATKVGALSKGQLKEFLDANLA
T3 sequence (P19821 whole entry, the tested form may be a part): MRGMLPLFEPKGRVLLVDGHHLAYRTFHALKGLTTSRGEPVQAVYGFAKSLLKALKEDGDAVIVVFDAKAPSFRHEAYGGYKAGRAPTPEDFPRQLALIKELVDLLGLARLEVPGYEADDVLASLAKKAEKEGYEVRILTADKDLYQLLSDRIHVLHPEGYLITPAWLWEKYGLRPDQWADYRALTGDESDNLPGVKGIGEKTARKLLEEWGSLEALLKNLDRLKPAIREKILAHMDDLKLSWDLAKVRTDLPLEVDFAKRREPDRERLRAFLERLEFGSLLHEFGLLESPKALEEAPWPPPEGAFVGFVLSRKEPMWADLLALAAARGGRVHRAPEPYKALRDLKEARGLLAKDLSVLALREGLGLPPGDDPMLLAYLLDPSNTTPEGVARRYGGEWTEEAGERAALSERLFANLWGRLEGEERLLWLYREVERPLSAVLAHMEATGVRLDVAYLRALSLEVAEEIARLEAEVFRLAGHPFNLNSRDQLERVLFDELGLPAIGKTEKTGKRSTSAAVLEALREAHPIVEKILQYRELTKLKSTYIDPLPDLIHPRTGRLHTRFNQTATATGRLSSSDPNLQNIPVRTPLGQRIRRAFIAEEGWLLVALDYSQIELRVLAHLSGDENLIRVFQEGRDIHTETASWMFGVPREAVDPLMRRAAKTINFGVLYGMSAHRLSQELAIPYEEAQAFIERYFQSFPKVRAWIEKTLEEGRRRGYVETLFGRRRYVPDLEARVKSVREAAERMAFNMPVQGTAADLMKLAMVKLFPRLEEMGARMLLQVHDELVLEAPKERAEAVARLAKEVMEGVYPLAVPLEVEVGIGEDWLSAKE
T2 sequence (P00582 324-928): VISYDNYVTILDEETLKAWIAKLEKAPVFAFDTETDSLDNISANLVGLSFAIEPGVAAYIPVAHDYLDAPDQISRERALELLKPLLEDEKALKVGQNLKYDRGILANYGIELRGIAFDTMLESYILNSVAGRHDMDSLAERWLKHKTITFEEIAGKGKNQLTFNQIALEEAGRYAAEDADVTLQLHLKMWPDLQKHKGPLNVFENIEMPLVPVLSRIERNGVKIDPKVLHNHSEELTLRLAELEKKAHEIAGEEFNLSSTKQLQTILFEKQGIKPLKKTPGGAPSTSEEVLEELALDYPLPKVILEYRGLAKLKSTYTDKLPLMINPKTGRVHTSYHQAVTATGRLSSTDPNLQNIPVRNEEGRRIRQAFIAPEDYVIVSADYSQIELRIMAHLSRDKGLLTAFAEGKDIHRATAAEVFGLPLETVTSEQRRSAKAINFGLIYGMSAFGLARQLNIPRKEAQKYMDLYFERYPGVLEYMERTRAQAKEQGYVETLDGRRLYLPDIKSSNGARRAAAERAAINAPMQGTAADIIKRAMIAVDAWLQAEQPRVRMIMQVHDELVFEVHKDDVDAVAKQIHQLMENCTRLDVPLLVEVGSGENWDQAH

Row | Structure (SMILES) | Incorporation Rate Ratios (dN/ddN) (T7 DNA polymerase Y526F) | Incorporation Rate Ratios (dN/ddN) [1] | Incorporation Rate Ratios (dN/ddN) [2]
1 | Nc1nc2c(ncn2[C@H]2CC[C@@H](COP(=O)(O)OP(=O)(O)OP(=O)(O)O)O2)c(=O)[nH]1 [ddGTP] | 6,400 | 140 | 1,400
2 | Cc1cn([C@H]2CC[C@@H](COP(=O)(O)OP(=O)(O)OP(=O)(O)O)O2)c(=O)[nH]c1=O [ddTTP] | 8,400 | 1,100 | 4,500
3 | Nc1ccn([C@H]2CC[C@@H](COP(=O)(O)OP(=O)(O)OP(=O)(O)O)O2)c(=O)n1 [ddCTP] | 11,000 | 250 | 2,600
4 | Nc1ncnc2c1ncn2[C@H]1CC[C@@H](COP(=O)(O)OP(=O)(O)OP(=O)(O)O)O1 [ddATP] | 7,300 | 720 | 4,700
